Experiments:
[1] = test system: platelet aggregation induced by PAF; experiment: PAF induced rabbit platelet aggregation in vitro; format: cell-based; conditions: 0.625 mM; washed rabbit platelets; PAF 2 nM; preincubated 2 min
Text: In terms of inhibition, PAF induced rabbit platelete aggregation is used as an index of PAF function inhibition. It was used as the first step in vitro screening method for identifying potential substances which are capable of inhibiting PAF function and may improve bronchial hyperresponsiveness in vivo.
Washed platelets were obtained from rabbits. In brief, rabbit blood was collected from the marginal ear vein into tubes containing one-sixth volume of acid-citrate-dextrose as anticoagulant. The blood was centrifuged at 200×g for 15 min at room temperature. The platelet-rich plasma was mixed with 1/40 volume of EDTA (final concentration 5 mM) and re-centrifuged at 1000×g for 12 min. The supernatant was discarded and the platelet pellet was suspended in modified Ca^2+-free Tyrode's buffer (137 mM NaCl, 2.8 mM KCl, 2 mM MgCl2, 0.33 mM NaH2PO4, 5 mM glucose, 10 mM HEPES) with 0.35% bovine serum albumin, heparin (50 unit/ml) and apyrase (1 unit/ml). Following incubation at 37° C. for 20 min, the washed platelet pellet was resuspended in Tyrode's buffer containing 1 mM Ca^2+. The platelet number were counted by using a hemocytometer and adjusted to 3.5×10^8 platelets/ml. […] Aggregation was measured by a turbidimetric method. […] The inhibitory activities of F-4 and F-8 on platelet aggregation induced by PAF were calculated according the equation: [formula]

[2] = test system: ovalbumin (OA) induced bronchial hyperresponsiveness; experiment: Bronchoalveolar lavage cell counts, OA model in BALBc mice; format: in vivo
Description: After completion of the pulmonary function tests, BAL was performed using 1 mL normal saline twice (total 2 mL). The BAL fluid was collected into plastic flasks containing 1,500 units of heparin and then strained through 1 layer of surgical gauze and centrifuged at 500 g for 5 min. The cell pellet was washed 3 times with sterile saline solution and resuspended in RPMI-1640. A small portion was taken for evaluation of cell number and viability, as assessed by trypan blue exclusion.
Differential counts were obtained using a cytocentrifuge preparation (Cytospin; Shandon Southern Instruments, Sewickley, Pa.) stained with Liu's stain (modified May-Giemsa stain).

ICR mice = experiment: Acute toxicity test in ICR mice; format: in vivo; conditions: normal diet with 2% ratio, killed after 7 days
Text: The methodology used to carry out acute toxicity testing for this invention was as follows: ICR mice that had been fed on a normal diet with the above active compound included to constitute a 2% ratio were killed after 7 days in order to ascertain whether there was any evidence of toxicity.
(§1) B: Compound F8: This refers to F8 (for spectroscopic and structural data, see FIG. 2a, 2b, and 3). The molecular formula of compound F8 is C28H46O3. To confirm the potential applicability of the above fractions and to check for obvious toxicity or mutagenicity, Ames test and acute toxicity test were conducted on white mice (ICR-mice) using the F4 fraction or compound F8.

Ames test = format: cell-based
Description: as §1

[3] = BAL fluid, BALBc mice, 4 mg/Kg intraperitoneally 30 minutes before OA inhalation provocation

## CC(C)[C@@H](C)C=C[C@@H](C)[C@H]1CC[C@H]2C3=C[C@@H](O)[C@@]4(O)C[C@@H](O)CC[C@]4(C)[C@H]3CC[C@]12C [F8, (24R)-ergosta-7,22-diene-3β, 5α, 6β,-triol]
[1]
  Inhibitory Activity (%): 97±2.6%
[2]; [3]
  Eosinophil Cell count: 0.12 ± 0.04 (×10^4)/mL
  Eosinophil Percentage of total cell count (%): 6.3 ± 1.6 %
  Lymphocyte Cell count: 0.10 ± 0.04 (×10^4)/mL
  Lymphocyte Percentage of total cell count (%): 5.2 ± 1.6 %
  Macrophage Cell count: 1.82 ± 0.21 (×10^4)/mL
  Macrophage Percentage of total cell count (%): 84.2 ± 3.4 %
  Neutrophil Cell count: 0.13 ± 0.03 (×10^4)/mL
  Neutrophil Percentage of total cell count (%): 5.1 ± 1.0 %
  Total cell count: 2.23 ± 0.64 (×10^4)/mL
[2]; mice, treatment study (administered after OA challenge)
  BAL total cell counts, eosinophils and lymphocytes versus group II: Group II had higher total cell counts than other 2 groups
ICR mice
  acute toxicity: no obvious evidence of toxicity or mutagenic properties
Ames test
  mutagenicity (Ames test): no obvious evidence of toxicity or mutagenic properties
